# Tested on: (GR)10
# Experiment: (GR)10 digestion with immobilized proteases (NHS-activated agarose resin) in PBS
# Assay type: biochemical
# Settings: normalized
# Description: Protease solutions were prepared at 2 mg/mL in sterile PBS with calcium, magnesium and 200 μL ([…]) were applied to 100 μL of pre-washed NHS-activated agarose resin in 0.8 mL centrifuge columns. Reactions were left 1.5 hour at room temperature with end-to-end mixing, after which resins were washed with 12 resin volumes of PBS. Unreacted sites were blocked with 500 μL of 1M ethanolamine for 15 minutes at room temperature and resins were further washed with 24 resin volumes. Resins were stored at 4 degrees in 500 μL of PBS containing 0.05% sodium azide as preservative.
# 110 μL of 50 μM (GR)10 dipeptide repeats prepared in PBS were added to each immobilized protease and incubated 5 minutes at room temperature with end-to-end mixing. Columns were spun down 1 minute at 1,000 Xg to recover digested GR dipeptides. Columns were washed with 110 μL of PBS to increase (GR)10 recovery. This procedure was repeated with 60 minutes digestion time. 100 μL of each samples were transferred to a new tube and 5 μL of 10% TFA followed by 300 μL of Dilution Solution were added. The reaction mixtures were analyzed by LC/MS to determine the concentration of GR repeats of different lengths.
# [1] = resin wash from 60 min reaction
substance,measurement,setting,value
Elastase: protease that cleaves at the carboxyl side of small hydrophobic amino acids; in Table 22 also immobilized on agarose resin,(GR)1,Immobilized - 5 min reaction,33.1 µM
same,(GR)2,Immobilized - 5 min reaction,4.8 µM
same,(GR)3,Immobilized - 5 min reaction,0.0 µM
same,(GR)4,Immobilized - 5 min reaction,0.0 µM
same,(GR)5,Immobilized - 5 min reaction,0.0 µM
same,(GR)6,Immobilized - 5 min reaction,0.0 µM
same,(GR)8,Immobilized - 5 min reaction,0.0 µM
same,(GR)10,Immobilized - 5 min reaction,0.0 µM
same,(GR)1,immobilized - 60 min reaction,48.1 µM
same,(GR)2,immobilized - 60 min reaction,0.0 µM
same,(GR)3,immobilized - 60 min reaction,0.0 µM
same,(GR)4,immobilized - 60 min reaction,0.0 µM
same,(GR)5,immobilized - 60 min reaction,0.0 µM
same,(GR)6,immobilized - 60 min reaction,0.0 µM
same,(GR)8,immobilized - 60 min reaction,0.0 µM
same,(GR)10,immobilized - 60 min reaction,0.0 µM
same,(GR)1,resin wash from 5 min reaction,13.8 µM
same,(GR)2,resin wash from 5 min reaction,0.0 µM
same,(GR)3,resin wash from 5 min reaction,0.0 µM
same,(GR)4,resin wash from 5 min reaction,0.0 µM
same,(GR)5,resin wash from 5 min reaction,0.0 µM
same,(GR)6,resin wash from 5 min reaction,0.0 µM
same,(GR)8,resin wash from 5 min reaction,0.0 µM
same,(GR)10,resin wash from 5 min reaction,0.0 µM
same,(GR)1,[1],18.5 µM
same,(GR)2,[1],0.0 µM
same,(GR)3,[1],0.0 µM
same,(GR)4,[1],0.0 µM
same,(GR)5,[1],0.0 µM
same,(GR)6,[1],0.0 µM
same,(GR)8,[1],0.0 µM
same,(GR)10,[1],0.0 µM

# Reference: patent US11419921B2, “Methods of treating neurological disorders” (EnClear Therapies, Inc., priority 2018, dated 2022)
